Test results reported in patent US5151414A, “Phenoxyethyl amine compounds active on the cardiovascular system” (SIMES Societa Italiana Medicinali e Sintetici S.p.A., priority 1987, dated 1992).

What was measured:
[1] = effects on systemic arterial pressure, heart rate and vascular resistances in anesthetized dog, intravenous route; format: in vivo
Description: In fact, the compounds object of the present invention reduce meaningfully systemic arterial pressure after administration by intravenous route in anesthetized dog (see example 11). The compound N-[2-(2,6-dichlorophenoxy)-ethyl]-N-propyl-2-amino-5,6-dihydroxy-1,2,3,4-tetrahydronaphthalene hydrochloride (Compound A) was tested by intravenous route in anesthetized dog in order to evaluate the effects on systemic arterial pressure. Compound A, administered by intravenous route at the doses of 10 and 20 μg/kg, reduced systemic arterial pressure as well as peripheral resistances and particularly femoral resistances, the last reduction being associated also with an increase of the corresponding haematic flow.

[2] = biological target: dopaminergic receptor (isolated membranes of rat striated muscle); experiment: receptor binding test, dopaminergic "in vitro" receptor affinity on isolated membranes of rat striated muscle
Text: (§1) Furthermore, the compounds of formula I show a remarkable dopaminergic activity in addition to an α1 -antagonistic effect. The dopaminergic activity has been evaluated by receptor binding tests as "in vitro" receptor affinity on isolated membranes of rat striated muscle and by pharmacological tests as "in vitro" inhibition of the answer to electric stimulation of cat right atrium.

[3] = biological target: α1 receptor (rat cerebral cortex); experiment: α1 receptor binding on rat cerebral cortex
Text: (§2) The α1 -antagonistic activity has been evaluated as receptor binding on rat cerebral cortex and as antagonism to contraction induced by phenylephrine (α1 -agonist) on rabbit aorta.

α1 (rabbit aorta) = experiment: antagonism to contraction induced by phenylephrine (α1-agonist) on rabbit aorta; format: biochemical
Text: as §2

[4] = test system: dopaminergic activity, cat right atrium; experiment: "in vitro" inhibition of the answer to electric stimulation of cat right atrium (dopaminergic activity); format: biochemical
Text: as §1

CCCN(CCOc1c(Cl)cccc1Cl)C1CCc2c(ccc(O)c2O)C1.Cl (stereo not drawn) [Compound A, N-[2-(2,6-dichlorophenoxy)-ethyl]-N-propyl-2-amino-5,6-dihydroxy-1,2,3,4-tetrahydronaphthalene hydrochloride]
Renal resistances ([1]; 10 μg/kg iv, basal 1.007 + 0.186): 0.871 ± 0.162 mmHg/ml/min | Femoral resistances ([1]; 10 μg/kg iv, basal 2.471 + 0.260): 1.802 ± 0.471 mmHg/ml/min | a. femoral flow ([1]; 10 μg/kg iv, basal 54.1 + 3.8): 67.4 ± 12.4 mL/min | Arterial pressure Mn ([1]; 10 μg/kg iv, basal 118 + 5): 102 ± 8 mmHg | Arterial pressure Md ([1]; 10 μg/kg iv, basal 136 + 4): 119 ± 7 mmHg | a. renal flow ([1]; 10 μg/kg iv, basal 143.7 + 23.7): 144.7 ± 20.6 mL/min | Heart rate ([1]; 10 μg/kg iv, basal 152 + 11): 161 ± 12 beats/min | Arterial pressure Mx ([1]; 10 μg/kg iv, basal 160 + 10): 145 ± 8 mmHg | Renal resistances ([1]; 20 μg/kg iv, basal 1.246 + 0.389): 1.082 ± 0.367 mmHg/ml/min | Femoral resistances ([1]; 20 μg/kg iv, basal 2.445 + 0.787): 1.274 ± 0.171 mmHg/ml/min | a. femoral flow ([1]; 20 μg/kg iv, basal 65.6 + 20.0): 87.8 ± 20.0 mL/min | Arterial pressure Mn ([1]; 20 μg/kg iv, basal 118 + 9): 96 ± 11 mmHg | a. renal flow ([1]; 20 μg/kg iv, basal 129.9 + 31.8): 128.9 ± 31.3 mL/min | Arterial pressure Md ([1]; 20 μg/kg iv, basal 132 + 8): 109 ± 9 mmHg | Heart rate ([1]; 20 μg/kg iv, basal 136 + 13): 146 ± 17 beats/min | Arterial pressure Mx ([1]; 20 μg/kg iv, basal 148 + 8): 124 ± 9 mmHg | femoral resistances (in words) ([1]; intravenous, 10 and 20 μg/kg): reduced | haematic flow, femoral (in words) ([1]; intravenous, 10 and 20 μg/kg): increase | peripheral resistances (in words) ([1]; intravenous, 10 and 20 μg/kg): reduced | systemic arterial pressure (in words) ([1]; intravenous, 10 and 20 μg/kg): reduced | IC50 [2]: 251 nM | IC50 [3]: 76 nM | pA2 (rabbit aorta) (α1 (rabbit aorta)): 7.42 | IC50 [4]: 8500 nM
